Molecular target: T1, BTK (Homo sapiens, UniProt Q06187)
T1 construct: purchased Thermo Fisher Scientific (Life Technologies) SelectScreen
Assay: SelectScreen Z'LYTE
Assay type: biochemical
How it was run: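 Compound tested in SelectScreen activity assays, Z'LYTE for CSF1R, CDK1/cyclin B and MAP2K6 and Adapta for CAMK1. ATP for CAMK1 was listed as 10, and Km app was used for CSF1R. Results are expressed in percent.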

T1 sequence (Q06187 whole entry): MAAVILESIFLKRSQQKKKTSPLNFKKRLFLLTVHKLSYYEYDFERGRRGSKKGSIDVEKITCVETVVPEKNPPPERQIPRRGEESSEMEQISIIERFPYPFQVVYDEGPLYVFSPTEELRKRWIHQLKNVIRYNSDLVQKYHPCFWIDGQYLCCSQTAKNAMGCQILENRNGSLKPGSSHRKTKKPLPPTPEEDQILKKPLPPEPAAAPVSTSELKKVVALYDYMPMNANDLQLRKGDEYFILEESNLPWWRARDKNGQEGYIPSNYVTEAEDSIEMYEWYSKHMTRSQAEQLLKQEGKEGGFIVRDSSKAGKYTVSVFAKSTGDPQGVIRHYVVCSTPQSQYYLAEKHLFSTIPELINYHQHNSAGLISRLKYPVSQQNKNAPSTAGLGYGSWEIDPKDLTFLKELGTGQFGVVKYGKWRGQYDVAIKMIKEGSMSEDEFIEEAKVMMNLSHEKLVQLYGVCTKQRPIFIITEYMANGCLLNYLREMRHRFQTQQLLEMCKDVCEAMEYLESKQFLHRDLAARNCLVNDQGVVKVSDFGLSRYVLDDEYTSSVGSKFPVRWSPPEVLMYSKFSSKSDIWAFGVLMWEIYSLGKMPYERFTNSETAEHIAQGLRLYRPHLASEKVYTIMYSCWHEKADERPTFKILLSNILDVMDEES

CN(C(=O)CN1CCOCC1)c1ccc2sc3c(-c4cccc5c(=O)cc(N6CC7CCC(C6)O7)oc45)cccc3c2c1 [NU5455]
inhibition at 1 µM: -2%

Reference: publication PMC6934184, “Selective DNA-PKcs inhibition extends the therapeutic index of localized radiotherapy and chemotherapy” (The Journal of Clinical Investigation, 2019)
